Results as given in patent EP4100520B1, “SYSTEM AND METHOD OF TR[…] STATES INFORMATION, […] MACR[…]” (Beznosiuk, Jaroslaw, priority 2020, dated 2021).

Experiments:
human muscle enolase = molecular target: T1, human muscle enolase (Homo sapiens, UniProt P13929); experiment: Enolase glycation with methylglyoxal: specific activity of enolase (absorbance increase at 240 nm, 2-PGA to PEP); assay type: biochemical; details: for K(1)i / K(1)0 / K(1)i / K(2)i: K1, without entanglement elements; for K(1)i / K(1)0 / Wi / W0: activity relative to own initial value; for Wi / W0 / Wi / K(2)i: W, with entanglement elements
T1 construct: Enolase was isolated from human muscle tissue using own method; from tissue; host or cells: human muscle tissue
T1 sequence (P13929 whole entry): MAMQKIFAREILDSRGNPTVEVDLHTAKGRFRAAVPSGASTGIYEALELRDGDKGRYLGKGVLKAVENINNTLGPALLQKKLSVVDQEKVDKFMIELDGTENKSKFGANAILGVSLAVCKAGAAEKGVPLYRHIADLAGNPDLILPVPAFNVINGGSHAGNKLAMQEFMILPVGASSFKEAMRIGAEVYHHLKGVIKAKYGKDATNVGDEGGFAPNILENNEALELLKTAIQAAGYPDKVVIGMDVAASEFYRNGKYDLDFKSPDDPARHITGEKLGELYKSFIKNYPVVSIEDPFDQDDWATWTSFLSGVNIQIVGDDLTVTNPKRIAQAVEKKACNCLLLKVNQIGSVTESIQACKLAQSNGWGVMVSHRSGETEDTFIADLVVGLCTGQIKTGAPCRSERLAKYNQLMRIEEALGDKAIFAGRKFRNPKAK
Method: Methylglyoxal was chosen as an enolase modifying agent because it is formed in the body mainly as a product of defective glycolysis or in the lipid peroxidation process, as well as a result of disorders of defence systems against carbonyl and oxidative stress. Simultaneously, enolase glycation was performed without exposure to the second entanglement elements 9, 9a of the second and third pair of entanglement elements. The second control was a sample of enolase that was not glycated and not treated with the second entanglement elements 9, 9a of the second and third pair of entanglement elements.
The second entanglement elements 9, 9a of the second and third pair of entanglement elements were aluminium plates, 1 cm by 2 cm in size, which were kept for 30 min at room temperature prior to testing. Enolase was isolated from human muscle tissue using own method (Bednarz-Misa I, Pietkiewicz J, et al., 2009. Adv.Clin.Exp.Med. Vol.18 no.1; p.71-78). The enzyme stock solution was a preparation of 7.5 mM of imidazole-HCl, pH 6.8, in stabilizing buffer, containing 2.5 mM of MgSO4, 50 mM of NaCl, 50% of glycerol (formulation stored at 4°C). The concentration of enolase in the stock solution Ro was 8 mg/ml (87 µM), while the enzyme specific activity was 25 IU/mg. In glycation mixtures, the enzyme concentration was 1 mg/ml (Ro diluted 8x with PBS buffer, pH 7.4).
In the experiment, a standard test buffer of 50 mM imidazole-HCl pH 6.8.3 mM MgSO4, 0.4M KCI and a substrate of 2-PGA (sodium salt) dissolved in H2O - a stock solution R0 at a concentration of 58.5 mM was used. 2-PGA in the enzyme assay was used at a standard concentration of 1 mM.
Protein concentration was determined spectrophotometrically by measuring the absorbance of enolase solution at 280 nm wavelength using quartz cuvettes. In the present system, quartz cuvettes constituted the end tanks 10 made of polar dielectric 5. Enolase activity was determined by monitoring in a Jasco UV-Vis V-530 spectrophotometer within 60 seconds, the increase in absorbance of the test solution at 240 nm wavelength (a measure of reaction product production, PEP). The specific activity of the enzyme was expressed in international units relative to 1 mg of protein (Bednarz-Misa I, Pietkiewicz J, et al., 2009. Adv.Clin.Exp.Med. 18(1);71-78).
Two glycation systems were prepared using a large excess of methylglyoxal in relation to enolase (ratio 1:300 mol:mol) - in accordance with the conditions according to [Pietkiewicz J. et al., 2011, Protein J. 30 (3):149-158]: • a) Substantive test: glycation of enolase treated with second entanglement elements 9, 9a of the second and third pair of entanglement elements.
175 µl of PBS pH 7.4 buffer were placed in the quartz cuvette, 20 µl of enolase stock solution and 5.5 µl of 0.8% aqueous methylglyoxal solution were added. In such a system, the effect of quantum information transmitted from source medium 2 (silicon monocrystal) on the modification of the glycolysis/gluconeogenesis enzyme enolase by methylglyoxal as a reactive glycating agent was studied.
In order to transmit quantum information from the source medium 2, the mixture was subjected for 3 hours to two second entanglement elements 9, 9a of the second and third pair of entanglement elements (which adhered to both sides of the cuvette). The system was kept at room temperature. b) Control test 1: glycation of enolase not treated with second entanglement elements 9, 9a of the second and third pairs of entanglement elements.
The reaction system was prepared as a substantive test (a). Incubation at room temperature occurred at the same time, without contact with the second entanglement elements 9, 9a of the second and third pair of entanglement elements (3 m distance from the substantive test). c) Control test 2: Unmodified enolase, not treated with second entanglement elements 9, 9a of the second and third pair of entanglement elements. […]

enolase = molecular target: T2, enolase (Homo sapiens, UniProt P13929); experiment: Electrophoresis to detect high molecular weight advanced glycation products (AGE) of enolase; details: 3 h glycation
T2 construct: Enolase was isolated from human muscle tissue using own method; from tissue; host or cells: human muscle tissue
T2 sequence (P13929 whole entry): as above
Method: The glycation process was interrupted after 3 hours by adding an aqueous solution of lysine at a concentration of 4 mg/ml to methylglyoxal samples (excess lysine bound unreacted methylglyoxal).
In order to detect the presence of high molecular weight products of advanced glycation of enolase (AGE), samples of each mixture were electrophoresized. Electrophoresis conditions according to [Pietkiewicz J. et al., 2011, Protein J. 30 (3):149-158]. 12 ug of protein from the analyzed samples was applied to the gel paths.

[1] = relative to unmodified enolase control K2 at same time, 1 h
[2] = relative to unmodified enolase control K2 at same time, 2 h
[3] = relative to unmodified enolase control K2 at same time, 3 h

CC(=O)C=O [methylglyoxal]
Activity (human muscle enolase; Control test 1 (K1): enolase + methylglyoxal (1:300 mol:mol), without entanglement elements, incubation time 0 h, room temperature): 24.6 IU/mg
Activity (human muscle enolase; Control test 1 (K1): enolase + methylglyoxal, without entanglement elements, incubation time 1 h): 21.37 IU/mg
Activity (human muscle enolase; Control test 1 (K1): enolase + methylglyoxal, without entanglement elements, incubation time 2 h): 19.15 IU/mg
Activity (human muscle enolase; Control test 1 (K1): enolase + methylglyoxal, without entanglement elements, incubation time 3 h): 17.64 IU/mg
K(1)i / K(1)0 (human muscle enolase; 0 h): 100%
K(1)i / K(1)0 (human muscle enolase; 1 h): 86.9%
K(1)i / K(1)0 (human muscle enolase; 2 h): 77.85%
K(1)i / K(1)0 (human muscle enolase; 3 h): 71.7%
K(1)i / K(2)i (human muscle enolase; activity relative to unmodified enolase control K2 at same time, 0 h): 99.6%
K(1)i / K(2)i (human muscle enolase; [1]): 93.8%
K(1)i / K(2)i (human muscle enolase; [2]): 88.8%
K(1)i / K(2)i (human muscle enolase; [3]): 90.6%
Activity (human muscle enolase; Substantive test (W): enolase + methylglyoxal + entanglement elements, incubation time 0 h, room temperature): 29.22 IU/mg
Activity (human muscle enolase; Substantive test (W): enolase + methylglyoxal + entanglement elements, incubation time 1 h): 25.78 IU/mg
Activity (human muscle enolase; Substantive test (W): enolase + methylglyoxal + entanglement elements, incubation time 2 h): 24.12 IU/mg
Activity (human muscle enolase; Substantive test (W): enolase + methylglyoxal + entanglement elements, incubation time 3 h): 23.4 IU/mg
Wi / W0 (human muscle enolase; 0 h): 100%
Wi / W0 (human muscle enolase; 1 h): 88.2%
Wi / W0 (human muscle enolase; 2 h): 82.5%
Wi / W0 (human muscle enolase; 3 h): 80.1%
Wi / K(2)i (human muscle enolase; relative to unmodified enolase control K2 at same time, 0 h): 118.3%
Wi / K(2)i (human muscle enolase; [1]): 113.2%
Wi / K(2)i (human muscle enolase; [2]): 117.3%
Wi / K(2)i (human muscle enolase; [3]): 120.1%
activity of the glycated enzyme relative to unmodified control test (human muscle enolase; in the presence of entanglement elements, throughout the experiment (0-3 h)): 113%-120
decrease in specific activity (human muscle enolase; sample K1, after 3 hours of glycation, without entanglement elements): approx. 28%
AGE of Mw 180 and Mw 230 kDa (enolase; control test, glycation in the absence of entanglement elements (path 2, fig. 6)): observed
AGE of Mw 180 and Mw 230 kDa (enolase; substantive test treated with entanglement elements (path 1, fig. 6)): observed
